SMILES strings stand for the structures. pIC50: −log10 of the molar value.

Experiment [1] deals with Dihydroorotate dehydrogenase (quinone), mitochondrial (Rattus norvegicus, UniProt Q63707). Briefly: Enzyme Inhibition Assay. The conditions noted are these: pH 8; 30 °C.
Experiment [2] concerns the target T1, Dihydroorotate dehydrogenase (quinone), mitochondrial [30-395] (Rattus norvegicus, UniProt Q63707).
T1 construct: 30-395
Briefly: Enzyme Inhibition Assay. The conditions noted are these: pH 8; 30 °C.

T1 sequence (Q63707 30-395): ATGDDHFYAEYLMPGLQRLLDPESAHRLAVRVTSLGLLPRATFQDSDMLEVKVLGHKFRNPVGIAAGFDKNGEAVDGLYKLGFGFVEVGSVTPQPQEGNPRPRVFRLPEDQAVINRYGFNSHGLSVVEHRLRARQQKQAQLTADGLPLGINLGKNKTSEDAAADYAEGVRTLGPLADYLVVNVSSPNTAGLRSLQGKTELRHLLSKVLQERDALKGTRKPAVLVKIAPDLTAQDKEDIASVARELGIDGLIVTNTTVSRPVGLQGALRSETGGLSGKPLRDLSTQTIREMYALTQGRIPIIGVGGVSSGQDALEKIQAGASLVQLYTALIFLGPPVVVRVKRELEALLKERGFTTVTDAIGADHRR
Sequence of Dihydroorotate dehydrogenase (quinone), mitochondrial (Q63707 whole entry): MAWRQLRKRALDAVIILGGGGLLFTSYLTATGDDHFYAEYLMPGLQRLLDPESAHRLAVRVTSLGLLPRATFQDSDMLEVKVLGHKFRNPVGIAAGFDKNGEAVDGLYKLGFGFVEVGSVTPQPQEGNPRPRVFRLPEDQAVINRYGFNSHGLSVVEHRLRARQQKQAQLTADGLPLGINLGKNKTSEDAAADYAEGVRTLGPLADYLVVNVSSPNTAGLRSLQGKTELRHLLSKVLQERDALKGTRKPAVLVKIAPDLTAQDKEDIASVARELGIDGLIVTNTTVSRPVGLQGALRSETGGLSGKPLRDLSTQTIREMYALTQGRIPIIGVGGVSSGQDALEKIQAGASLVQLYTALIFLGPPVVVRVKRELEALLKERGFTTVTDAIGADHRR

Usually pIC50 stands for the IC50 on a negative log10 scale, so that one unit is a factor of ten. Higher therefore signals a small IC50. Turning to `O=C1C(=O)C(C2CCC(c3ccc(Cl)cc3)CC2)C(=O)c2ccccc21` (configuration not stated) [Mepron], the pIC50 was 6.16 in experiment [1] and 6.04 in experiment [2].

Values taken from BindingDB's records for doi:10.1110/ps.03533004 (University of Copenhagen, 2004).
